According to US20160151458A1, “Use Of Unacylated Ghrelin, Fragments And Analogs Thereof As Antioxidant” (ALIZE PHARMA SAS, priority 2013, published 2016):
Ends that are not written are not given here. * marks the point of attachment. Octanoyl = CCCCCCCC(=O)*

Experiments:
primary SCs = experiment: In-vitro ischemia of primary SCs from normo-perfused muscles; assay type: cell-based, C57BL/6J mice; conditions: SB202190 1 μmol/L added
Description: (§1) SCs were isolated from gastrocnemius muscles of C57BL/6J wild type mice subjected to ischemia or C57BL/6J mice lacking the GHSR1a and ghrelin genes (10 mice, kind gift of Professor M. Tschöp)^39. To obtain SCs, muscle samples were subjected to enzymatic digestion as described^45. In selected experiments, SCs were recovered from normo-perfused muscles and subjected to in-vitro ischemia in presence of saline, AG (1 μmol/L) or UAG (1 μmol/L). In-vitro ischemia was induced by incubating cells in DMEM+2% FCS at 5% CO2/95% N2 humidified atmosphere, yielding 1% O2 concentrations for 24 h^18. The in-vitro ischemia was also performed in the presence of SB202190 (1 μmol/L).
(§2) SC cell-cycle progression was evaluated by evaluating the percentage of PCNA-positive cells or by FACS analysis as previously described^46. The percentage of cells in each cell cycle phase was determined by ModFit LT software (Verity Software House. Inc, topsham, ME, USA). Celss proliferation was also assayed by evaluating the percentage of PCNA-positive cells by FACS analysis.
(§3) Cells were lysed and protein detection was obtained as previously described^47. Cells were lysed (50 mmol/L Tris HCl [pH 8.3], 1% Triton X-100, 10 mmol/L PMSF, 100 U/ml aprotinin, 10 μmol/L leupeptin) and protein concentrations were obtained as previously described^47. […] Densitometric analysis was used to calculate the differences in the fold induction of protein levels and normalized to tubulin, a actin or p38MAPK content. Values are reported as relative amount
(§4) Intracellular ROS production was evaluated using DCF-DA (5-(and-6)-carboxy-2′,7′-dichlorofluorescein diacetate, […] final concentration) (Molecular Probe, Invitrogen) assay as previously described^23. The formation of TBARS was determined in muscles using the OXI-TEK kit (ZeptoMetrix Corp.) and a luminescence spectrometer (Bio-Rad Laboratories, Hercules, Calif.) with excitation set at 530 nm, emission at 550 nm to measure in-vivo oxidative stress levels^33.
Total RNA was isolated using TRIzol reagent (Invitrogen) from SCs recovered from muscles of treated animals or from SCs subjected to in-vitro ischemia. miR-221/222 expression was evaluated by qRT-PCR as previously described^48. Loss-of-function experiments were performed in SCs transfected for 48 h with anti-miRNA negative control, anti-miR-221/222 antagonists (Applied Biosystem, Foxter Cyto CA, USA), according to the manufacturer's instructions^48.

[1] = tested on: glucose, insulin and lipid metabolisms; conditions: cited from earlier work; for retention of the activity of UAG full length: U.S. Pat. Nos. 8,222,217 and 8,318,664; for smallest fragment retaining UAG activity: earlier patents
[2] = tested on: unilateral hind limb ischemia in C57BL/6J mice (ischemic gastrocnemius muscle); experiment: Murine hind-limb ischemia model; assay type: in vivo
Description: Male C57BL/6J mice (Charles River Lab., Wilmington, Mass., USA) were anesthetized and unilateral hind limb ischemia was induced as described^42. The normo-perfused contralateral limb of each mouse was used as an internal control. After hind-limb ischemia, animals (18 mice per group) were treated by intra-peritoneal injection daily from 0 to day 21 with either saline, AG (100 μg/kg) or UAG (100 μg/kg). In selected experiments, mice received intramuscular injections of pre-miR oligonucleotides (5 mice/group). To induce toxic damage, 100 μl of 1% barium chloride (BaCl2, Sigma Aldrich) was injected unilaterally into the hind limb (9 mice). Mice were treated according to European Guidelines and policies as approved by the University of Turin Ethical Committee.
Semiquantitative estimation (by repeated measures analyzed with ANOVA and Newman-Keuls Multiple Comparison test) of foot damage was performed serially using the following classification: 3=dragging of foot (foot necrosis), 2=no dragging but no plantar flexion (foot damage), 1=plantar flexion but no toe flexion (toe damage), and 0=flexing the toes to resist gentle traction on the tail (no damage)^43.
Gastrocnemius muscle sections from ischemic or normo-perfused limbs were stained with hematoxylin and eosin for histological analysis. The proportion of fibers with central nuclei (regenerating fibers) was measured by MetaMorph software (Life Sciences Research Imaging Systems) in the injured area and the cross-sectional areas of the fibers in the injured and non-injured areas. For IF analysis, muscle sections were processed as described previously^44. The number of cells expressing the indicated markers or CD31 positive vessels was evaluated as previously described^34.
as §4

SCs from double KO mice = experiment: In-vitro ischemia of SCs from double KO mice lacking the GHSR1a and ghrelin genes; assay type: cell-based, C57BL/6J mice lacking the GHSR1a and ghrelin genes
Description: as §1, §2, §3, §4

[3] = tested on: C2C12 mouse muscular cell line; experiment: ROS production (DCF-DA) in C2C12 cells under oxidative stress; assay type: cell-based; conditions: 1 μmol/L; stress by hypoxia (1% O2), AGEs, hyperglycemia (25 mM) or H2O2; FIG. 8
Description: Kinetic analysis of ROS production was evaluated by using DCF-DA (5-(and-6)-carboxy-2′,7′-dichlorofluorescein diacetate, 0.5 μmol/L final concentration) (Molecular Probe, Invitrogen) assay. C2C12 cells were cultured with 400 μg/ml Advanced Glycated End-product (AGE) or 25 mM glucose (high glucose HG) for 48 h, H2O2 (100 μM) for 2 h. In parallel experiments C2C12 cells were subjected to hypoxia (DMEM+2% FCS in a 5% CO2-95% N2 humidified atmosphere, yielding to 1% O2 concentrations for 24 h). UAG (1 μmol/L) AZP 531 (1 μmol/L) or AZP-502 (1 μmol/L) was added where indicated.

For `Oc1ccc(-c2nc(-c3ccncc3)c(-c3ccc(F)cc3)[nH]2)cc1` [SB202190, reference compound], the “cell-cycle entry of SCs exposed to UAG” value (primary SCs; FIG. 5E) was “blocked cell-cycle entry” and the “MyoD and myogenin expression in SCs exposed to UAG” value (primary SCs; FIG. 5F) was “prevented MyoD and myogenin expression”.

For “Glu-His-Gln-Arg (EHQR; listed as Homo sapiens) [UAG (8-11)]”, the “retention of the activity of UAG full length” value (shortened to “retention”) [1] is given as “retain the activity of UAG full length on glucose, insulin and lipid metabolisms” and the “smallest fragment retaining UAG activity” value [1] is given as “smallest UAG fragment to retain UAG activities”.

In the case of “AG: 28 amino acid peptide with an n-octanoyl modification on the Ser3 residue; endogenous ligand of GHSR-1a (GSS(Octanoyl)FLSPEHQRVQQRKESKKPPAKLQPR; UniProt Q9UBU3 24-51, looked up) [reference compound]”, the “protection against ischemia-induced damage (overall in vivo effect)” value ([2]; 100 μg/kg i.p. daily) was “failure to detect in vivo effects”, the “foot damage (functional score)” value ([2]; 100 μg/kg i.p. daily from day 0, FIG. 1A) was “significantly higher” and the “capillary density, ischemic vs contralateral control muscles of the same animals” value ([2]; 100 μg/kg i.p. daily, FIG. 1B) was “significantly lower capillary density than in contralateral control muscles”. The “concentration of TBARS in ischemic muscles” value ([2]; FIG. 3A) was “Significant increases in the concentration of TBARS”, the SC cell-cycle progression (SCs from double KO mice; FIG. 5G) was “only UAG” and the “p-p38/MAPK, Pax-7, MyoD, Myf5 and myogenin expression” value (SCs from double KO mice; FIGS. 5H, 5I) was “only UAG”.

In the case of SPEHQRVQ [UAG (6-13)], the “protection against oxidative stress (ROS production)” value [3] is given as “have a protective effect on C2C12 cells against oxidative stress” and the “retention” value [1] is given as “retain the activity of UAG full length on glucose, insulin and lipid metabolisms”.

For “His-Gln-Arg-Val (HQRV; listed as Homo sapiens) [UAG (9-12)]”, the “retention” value [1] is given as “retain the activity of UAG full length on glucose, insulin and lipid metabolisms” and the “smallest fragment retaining UAG activity” value [1] is given as “smallest UAG fragment to retain the biological activity of UAG”.

For “Glu-His-Gln-Arg-Val (EHQRV; listed as Homo sapiens) [UAG (8-12)]”, the “retention” value [1] is given as “retain the activity of UAG full length on glucose, insulin and lipid metabolisms”.

In the case of “His-Gln-Arg (HQR; listed as Homo sapiens) [UAG (9-11)]”, the “retention” value [1] is given as “retain the activity of UAG full length on glucose, insulin and lipid metabolisms”.

For EHQRVQ [UAG (8-13)], the “retention” value [1] is given as “retain the activity of UAG full length on glucose, insulin and lipid metabolisms”.

With “Ser-Pro-Glu-His-Gln-Arg-Val-Gln (cycl) (SPEHQRVQ; also: cyclic, closure not given here; listed as Homo sapiens) [UAG(6-13)cyclic]” the “protection against oxidative stress (ROS production)” value [3] was “have a protective effect on C2C12 cells against oxidative stress”.
